{"source": "patent US20020168426A1", "about": "“Composition comprising extracts of flos lonicerae, fructus forsythiae and radix scutellariae, uses and preparation thereof” (priority 2000, published 2002)", "key": {"[1]": {"tested_on": "ileum contraction induced by histamine", "assay": "Anti-anaphylaxis test: histamine-induced contraction of isolated ileum", "set-up": "species or system guinea pig", "description": "A three-color guinea pig was used in the following experiment. The extracts of Flos Lonicerae, Fructus Forsythiae and Radix Scutellariae, both with supercritical fluid extraction and with subboiling aqueous extraction, were used as test drugs. Ebalin, an antihistamine, was used as the control drug.\nThe ileum of a guinea pig was taken and hung on a Magnus' bath. The basic contraction frequency of the ileum was recorded with the MacLab method. There was a total of four groups involved in this experiment: the histamine alone, the histamine plus Ebalin, the histamine plus the supercritical extract of Flos Lonicerae, Fructus Forsythiae and Radix Scutellariae, and the histamine plus sub-boiling aqueous extract. The test curves were respectively recorded after the administration of the histamine and the other test drugs. The inhibitory rate and exciting rate were calculated with the following formula: [formula]"}, "[2]": {"tested_on": "parainfluenza virus I (HVJ)", "assay": "Anti-virus test: inhibition of virus-induced cytopathy in Hep-2 cells", "format": "cell-based", "details": "125 μg/ml"}, "[3]": {"tested_on": "Virus Pneumonia induced by influenza", "assay": "Anti-virus test in vivo: Virus Pneumonia induced by influenza", "set-up": "species or system Mice", "details": "dosage 0.07 g/kg", "text": "B. Anti-virus test in vivo"}, "herpes I virus (HSV-I)": {"tested_on": "herpes I virus (HSV-I)", "assay": "Anti-virus test: inhibition of virus-induced cytopathy in Hep-2 cells", "format": "cell-based", "details": "125 μg/ml"}, "Influenza virus A3": {"tested_on": "Influenza virus A3", "assay": "Anti-virus test: inhibition of virus-induced cytopathy in Hep-2 cells", "format": "cell-based", "details": "125 μg/ml"}, "RSV [4]": {"tested_on": "RSV", "assay": "Anti-virus test: inhibition of virus-induced cytopathy in Hep-2 cells", "format": "cell-based", "details": "125 μg/ml"}, "Influenza A": {"tested_on": "Influenza A", "assay": "Inhibitory effect for virus, Cytopathic Effect (CPE) method, monolayer Holn cells", "format": "cell-based", "set-up": "key: “−”: Virus proliferation was inhibited and no pathologic change was found in the cells.; “+”: The cell had pathologic change"}, "HSV-II": {"tested_on": "HSV-II", "assay": "Inhibitory effect for virus, Cytopathic Effect (CPE) method, monolayer Holn cells", "format": "cell-based", "set-up": "key: “−”: Virus proliferation was inhibited and no pathologic change was found in the cells.; “+”: The cell had pathologic change"}, "RSV [5]": {"tested_on": "RSV", "assay": "Inhibitory effect for virus, Cytopathic Effect (CPE) method, monolayer Holn cells", "format": "cell-based", "set-up": "key: “−”: Virus proliferation was inhibited and no pathologic change was found in the cells.; “+”: The cell had pathologic change"}, "ADV3": {"tested_on": "ADV3", "assay": "Inhibitory effect for virus, Cytopathic Effect (CPE) method, monolayer Holn cells", "format": "cell-based", "set-up": "key: “−”: Virus proliferation was inhibited and no pathologic change was found in the cells.; “+”: The cell had pathologic change"}}, "note": "Structures can show the parent of a compound that is named as a salt.", "data": [{"smiles": "CN(C)CCC(c1ccc(Br)cc1)c1ccccn1.O=C(O)/C=C\\C(=O)O", "note": "(stereo not shown) [Ebalin]", "values": [{"measurement": "Ileum contraction with histamine plus test drug", "setting": "[1]; Table 13: histamine 3.3 × 10^−6 g/ml + test drug 1 × 10^−3 g/ml, histamine alone 271 ± 42", "value": "181 ± 32", "unit": "%"}, {"measurement": "Ileum contraction with histamine plus test drug", "setting": "[1]; Table 14: histamine 3.3 × 10^−6 g/ml + 1 × 10^−6 g/ml, histamine alone 235.29 ± 35.30", "value": "133.81 ± 405.5", "unit": "%"}]}, {"smiles": "NC(=O)c1ncn([C@@H]2O[C@H](CO)[C@@H](O)[C@H]2O)n1", "note": "[Ribavirin]", "values": [{"measurement": "Anti-virus effect of Ribavirin", "setting": "[2]", "value": "+"}, {"measurement": "Inhibitive rate (100%)", "setting": "[3]", "value": 24.68, "unit": "%"}, {"measurement": "Lung index (X ± SD)", "setting": "[3]; infection control 1.54 ± 0.25", "value": "1.16 ± 0.15"}, {"measurement": "Anti-virus effect of Ribavirin", "setting": "herpes I virus (HSV-I)", "value": "+"}, {"measurement": "Anti-virus effect of Ribavirin", "setting": "Influenza virus A3", "value": "+"}, {"measurement": "Anti-virus effect of Ribavirin", "setting": "RSV [4]", "value": "+"}]}, {"smiles": "N=C(N)/N=C(\\N)N1CCOCC1", "note": "[Moroxydine hydrochloride]", "values": [{"measurement": "Inhibitory effect for the virus (CPE)", "setting": "Influenza A; 1%, 10 mg/ml", "value": "+"}, {"measurement": "Inhibitory effect for the virus (CPE)", "setting": "Influenza A; 5%, 50 mg/ml", "value": "−"}, {"measurement": "Inhibitory effect for the virus (CPE)", "setting": "Influenza A; 10%, 100 mg/ml", "value": "−"}, {"measurement": "Inhibitory effect for the virus (CPE)", "setting": "Influenza A; 15%, 150 mg/ml", "value": "−"}, {"measurement": "Inhibitory effect for the virus (CPE)", "setting": "Influenza A; 20%, 200 mg/ml", "value": "−"}, {"measurement": "Inhibitory effect for the virus (CPE)", "setting": "HSV-II; 1%, 10 mg/ml", "value": "+"}, {"measurement": "Inhibitory effect for the virus (CPE)", "setting": "HSV-II; 5%, 50 mg/ml", "value": "+"}, {"measurement": "Inhibitory effect for the virus (CPE)", "setting": "HSV-II; 10%, 100 mg/ml", "value": "+"}, {"measurement": "Inhibitory effect for the virus (CPE)", "setting": "HSV-II; 15%, 150 mg/ml", "value": "+"}, {"measurement": "Inhibitory effect for the virus (CPE)", "setting": "HSV-II; 20%, 200 mg/ml", "value": "+"}, {"measurement": "Inhibitory effect for the virus (CPE)", "setting": "RSV [5]; 1%, 10 mg/ml", "value": "+"}, {"measurement": "Inhibitory effect for the virus (CPE)", "setting": "RSV [5]; 5%, 50 mg/ml", "value": "+"}, {"measurement": "Inhibitory effect for the virus (CPE)", "setting": "RSV [5]; 10%, 100 mg/ml", "value": "+"}, {"measurement": "Inhibitory effect for the virus (CPE)", "setting": "RSV [5]; 15%, 150 mg/ml", "value": "+"}, {"measurement": "Inhibitory effect for the virus (CPE)", "setting": "RSV [5]; 20%, 200 mg/ml", "value": "+"}, {"measurement": "Inhibitory effect for the virus (CPE)", "setting": "ADV3; 1%, 10 mg/ml", "value": "+"}, {"measurement": "Inhibitory effect for the virus (CPE)", "setting": "ADV3; 5%, 50 mg/ml", "value": "+"}, {"measurement": "Inhibitory effect for the virus (CPE)", "setting": "ADV3; 10%, 100 mg/ml", "value": "+"}, {"measurement": "Inhibitory effect for the virus (CPE)", "setting": "ADV3; 15%, 150 mg/ml", "value": "+"}, {"measurement": "Inhibitory effect for the virus (CPE)", "setting": "ADV3; 20%, 200 mg/ml", "value": "+"}]}]}
